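A five-concentration, 48-hour dose response in 96-well plates underlies each endpoint, interpolated linearly between surrounding concentrations. Here, GI50 denotes the concentration required for 50% inhibition of growth.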 The source made the active and inactive calls. No stated cut-off is given here; in the data, active = GI50 up to about 1.1 µM and inactive = higher.

Assay in all cases: growth of human tumour cells (NCI), 48 h
The subject of assay [1] is A498.
The test system of assay [2] is A549.
Assay [3] relates to COLO 205.
The test system of assay [4] is DU-145.
In assay [5] the test system is HOP-92.
For assay [6], the system named is MCF7.
Assay [7] concerns MDA-MB-435.
For assay [8], the system named is MOLT-4.
The test system of assay [9] is Malme-3M.
The test system of assay [10] is SF-295.
In assay [11] the test system is SK-MEL-28.
The subject of assay [12] is SK-OV-3.
Assay [13] deals with SN12C.
Assay [14] has as its system SW-620.
For assay [15], the system named is TK-10.
The test system of assay [16] is U-251.
Assay [17] concerns UACC-62.
For assay [18], the system named is UO-31.

For `O=C1CN(c2cccc(Cl)c2)C(=O)CN1CCN1CC(=O)N(c2cccc(Cl)c2)CC1=O`, the GI50 in assay [1], in assay [2], in assay [3], in [4], in [5] and in assay [6] was > 100 µM (inactive) throughout. Further, the GI50 in [7], in assay [8], in assay [9], in assay [10], in [11] and in assay [12] was > 100 µM (inactive) throughout. Further, the GI50 in [13], in assay [14], in assay [15], in assay [16], in assay [17] and in [18] was > 100 µM (inactive) throughout.

For the compound `O=C(c1ccccc1)C(c1ccccc1)C1(O)C(=O)Nc2ccc(Br)cc21` (stereo unspecified), the GI50 in assay [1] was > 100 µM (inactive); in [2], > 100 µM (inactive); in assay [3] it was > 100 µM (inactive); in assay [5] it was 73.5 µM (inactive); in assay [8], 23.6 µM (inactive); in assay [9], 76.6 µM (inactive). The GI50 was > 100 µM (inactive) in [10]; 46.1 µM (inactive) in assay [11]; > 100 µM (inactive) in assay [12]; 35.8 µM (inactive) in assay [13]; 72.1 µM (inactive) in assay [14]; > 100 µM (inactive) in assay [15]. Moreover, the GI50 is 65 µM (inactive) in assay [16], 20.1 µM (inactive) in [17] and 63.8 µM (inactive) in assay [18].

Turning to `CCC12C[N+]3([O-])CCc4c([nH]c5ccccc45)C(C(=O)OC)(c4cc5c(cc4OC)N(C)C4C(O)(C(=O)OC)C(OC(C)=O)C6(CC)C=CCN7CCC54C76)CC(C3)C1O2` (stereo unspecified), the GI50 is 1.55 µM (inactive) in assay [1]; 0.826 µM (active) in assay [2]; 0.423 µM (active) in [3]; 0.594 µM (active) in [5]; 0.406 µM (active) in [8]; 1.61 µM (inactive) in [9]. Besides, the GI50 in assay [10] was 0.291 µM (active); in assay [11], 0.236 µM (active); in assay [12], 0.336 µM (active); in assay [13] it was 2.33 µM (inactive); in [14], 0.598 µM (active); in assay [15], 5.62 µM (inactive). Moreover, the GI50 in assay [16] was 1.04 µM (active); in assay [17], 0.323 µM (active); in assay [18], 3.17 µM (inactive).

With `O=C(OCc1ccccc1)n1cccc1`, the GI50 is > 100 µM (inactive) in assay [1]; > 100 µM (inactive) in assay [2]; > 100 µM (inactive) in assay [3]; > 100 µM (inactive) in [5]; 76.9 µM (inactive) in [8]; > 100 µM (inactive) in assay [9]. Also, the GI50 in assay [10], in [11], in [12], in [13], in assay [14] and in [15] was > 100 µM (inactive) each time. Further, the GI50 was > 100 µM (inactive) in assay [16], > 100 µM (inactive) in assay [17] and 46.3 µM (inactive) in assay [18].

Consider `COc1ccccc1-c1cc(=O)c2cc(C)c(C)c(C(=O)O)c2o1`, for which the GI50 in assay [1], in assay [2], in assay [3], in assay [5], in assay [8] and in assay [9] was > 100 µM (inactive) each time. Besides, the GI50 in [10], in [11], in assay [12], in assay [13], in [14] and in assay [15] was > 100 µM (inactive) in each case. Also, the GI50 in assay [16], in assay [17] and in [18] was > 100 µM (inactive) each time.

Consider `O=C1N(c2ccc(Cl)cc2)C(=O)C2(SC=NN2Cc2ccccc2)N1c1ccc(Cl)cc1` (stereo unspecified), for which the GI50 in assay [1] is > 100 µM (inactive); in assay [2] it was 96.4 µM (inactive); in assay [3] it was > 10 µM (inactive); in assay [5], > 100 µM (inactive); in assay [8], 7.87 µM (inactive); in assay [9] it was > 100 µM (inactive). Besides, the GI50 is > 10 µM (inactive) in [10]; > 100 µM (inactive) in [11]; > 100 µM (inactive) in assay [12]; > 100 µM (inactive) in assay [13]; > 100 µM (inactive) in [14]; > 100 µM (inactive) in [15]. The GI50 in [16], in assay [17] and in [18] was > 100 µM (inactive) each time.

On to `C/C(=N\NC(=S)NC(CCC(=O)O)C(=O)O)c1ccccn1` (stereo unspecified), for which the GI50 in [1], in assay [2], in assay [3], in assay [5], in [8] and in [9] was > 100 µM (inactive) in each case. Also, the GI50 in assay [10], in assay [11], in assay [12], in [13], in assay [14] and in assay [15] was > 100 µM (inactive) each time. Besides, the GI50 in assay [16], in assay [17] and in assay [18] was > 100 µM (inactive) throughout.

`COc1cc(/C=C2\NC(=O)C3Cc4c(OC)c(C)c(OC)c(OC)c4C2N3C)c(OC)c(C)c1OC` (stereo unspecified): the GI50 in [1] is > 100 µM (inactive); in [2], > 100 µM (inactive); in assay [3], > 100 µM (inactive); in assay [5], > 100 µM (inactive); in assay [8], 44.2 µM (inactive); in [9] it was > 100 µM (inactive). For the same compound, the GI50 in assay [10] is > 100 µM (inactive); in assay [11], > 100 µM (inactive); in assay [12], > 100 µM (inactive); in assay [13] it was > 100 µM (inactive); in [14] it was > 10 µM (inactive); in assay [15], > 100 µM (inactive). In addition, the GI50 in assay [16], in assay [17] and in [18] was > 100 µM (inactive) throughout.

Regarding `CSc1nc2c(nc(N)n2C2OC(CO)C(O)C(O)C2O)c(=O)[nH]1` (stereo unspecified), the GI50 in [1], in assay [2], in assay [3], in [5], in assay [8] and in assay [9] was > 100 µM (inactive) in each case. For the same compound, the GI50 in assay [10], in assay [11], in assay [12], in [13], in [14] and in assay [15] was > 100 µM (inactive) each time. Also, the GI50 in assay [16], in [17] and in assay [18] was > 100 µM (inactive) each time.

In the case of `CC1=C2C(=CC(C)(C)C2O)C(=O)C(C)(O)C12CC2` (stereo unspecified), the GI50 in assay [1] was 0.0279 µM (active); in [2] it was 0.0135 µM (active); in assay [3] it was 0.0138 µM (active); in assay [5] it was 0.0167 µM (active); in [8], 0.00253 µM (active); in assay [9], 0.012 µM (active). For the same compound, the GI50 is 0.00724 µM (active) in assay [10]; 0.0247 µM (active) in [11]; 0.0262 µM (active) in assay [12]; 0.0189 µM (active) in assay [13]; 0.00305 µM (active) in assay [14]; 0.0216 µM (active) in assay [15]. Also, the GI50 is 0.0059 µM (active) in [16], 0.0116 µM (active) in assay [17] and 0.0127 µM (active) in assay [18].

As to `O=C(Nc1ccccc1)OCc1nc2c([nH]1)C(=O)C=CC2=O`, the GI50 in assay [1] is 16.2 µM (inactive); in assay [2], 16.4 µM (inactive); in assay [3], 1.9 µM (inactive); in [5], 24.6 µM (inactive); in assay [8], 2.32 µM (inactive); in assay [9] it was 6.4 µM (inactive). The GI50 in [10] is 18.6 µM (inactive); in assay [11], 15.6 µM (inactive); in assay [12], 15.9 µM (inactive); in [13] it was 17.2 µM (inactive); in assay [14] it was 2.62 µM (inactive); in [15], 14 µM (inactive). For the same compound, the GI50 is 12.5 µM (inactive) in assay [16], 19.7 µM (inactive) in [17] and 16.8 µM (inactive) in assay [18].

Regarding `C=C(C)[C@@H]1CC[C@]2(COC(C)=O)CC[C@]3(C)[C@H](CC[C@@H]4[C@@]5(C)CC[C@H](OC(C)=O)C(C)(C)[C@@H]5CC[C@]43C)[C@@H]12` [BETULIN DIACETATE], the GI50 was > 50 µM (inactive) in assay [1]; > 50 µM (inactive) in assay [2]; > 50 µM (inactive) in assay [3]; > 31.6 µM (inactive) in assay [5]; > 50 µM (inactive) in assay [7]; > 50 µM (inactive) in assay [8]. Besides, the GI50 in assay [11], in [12], in [13], in [14], in assay [16] and in [17] was > 50 µM (inactive) throughout. Moreover, in assay [18], the GI50 is > 50 µM (inactive).

The values are drawn from ChEMBL document CHEMBL1201862, “PubChem BioAssay data set” (2004).
